Source: ChEMBL document CHEMBL6071135, “New resorcylic acid derivatives of Lysimachia tengyuehensis against MRSA and VRE by interfering with bacterial metabolic imbalance” (Eur J Med Chem, 2024)
Values after ≈ are worked out from the molar mass of the structure shown. Active and inactive are the calls of the source. The calls are words filed in the database; no cut-off is given here.

Tests used:
Staphylococcus aureus [1] = experiment: Bactericidal activity against methicillin-resistant Staphylococcus aureus measured after 24 hrs by CLSI based broth microdilution method; type: functional
Enterococcus faecalis [2] = experiment: Bactericidal activity against vancomycin-resistant Enterococcus faecalis ATCC51299 measured after 24 hrs by CLSI based broth microdilution method; type: functional
Staphylococcus aureus [3] = experiment: Antibacterial activity against methicillin-resistant Staphylococcus aureus measured after 24 hrs by CLSI based broth microdilution method; type: functional
Enterococcus faecalis [4] = experiment: Antibacterial activity against vancomycin-resistant Enterococcus faecalis ATCC51299 measured after 24 hrs by CLSI based broth microdilution method; type: functional
Enterococcus faecalis [5] = experiment: Bactericidal activity against vancomycin-resistant Enterococcus faecalis ATCC51299 assessed as reduction in number of bacteria at 2 times MIC measured within 1 hr by time-kill assay; type: functional, organism-based
Enterococcus faecalis [6] = experiment: Drug resistance, ratio of MIC for vancomycin-resistant Enterococcus faecalis ATCC51299 after 20 days exposure to MIC for vancomycin-resistant Enterococcus faecalis ATCC51299 during first exposure; type: functional; settings: time 20 day
Staphylococcus aureus [7] = experiment: Antibacterial activity against methicillin resistant Staphylococcus aureus infected in female Kunming mouse model of skin infection assessed as reduction in wound size at 8 mg/kg administered daily pre-infected for 4 hrs followed by compound administration for 7 days; type: functional, organism-based; settings: time 7.0 day
[8] = Toxicity in Kunming mouse assessed as morphological abnormalities at 8 mg/kg administered daily and measured after 7 days; type: organism-based; settings: in vivo, 168 h, time 7 day
Staphylococcus aureus [9] = experiment: Antibacterial activity against methicillin resistant Staphylococcus aureus infected in female Kunming mouse model of skin infection assessed as increase in neovascularization at 8 mg/kg administered daily pre-infected for 4 hrs followed by compound administration for 7 days; type: functional, organism-based; settings: time 7.0 day
Staphylococcus aureus [10] = experiment: Bactericidal activity against methicillin-resistant Staphylococcus aureus assessed as reduction in number of bacteria at 2 times MIC measured within 1 hr by time-kill assay; type: functional, organism-based
Staphylococcus aureus [11] = experiment: Antibacterial activity against methicillin resistant Staphylococcus aureus infected in female Kunming mouse model of skin infection assessed as reduction in inflammatory cell infiltration at 8 mg/kg administered daily pre-infected for 4 hrs followed by compound administration for 7 days; type: functional, organism-based; settings: time 7.0 day
Staphylococcus aureus [12] = experiment: Antibacterial activity against methicillin resistant Staphylococcus aureus infected in female Kunming mouse model of skin infection assessed as reduction in bacterial load of wound at 8 mg/kg administered daily pre-infected for 4 hrs followed by compound administration for 7 days; type: functional, organism-based; settings: time 7.0 day
Staphylococcus aureus [13] = experiment: Antibacterial activity against methicillin resistant Staphylococcus aureus infected in female Kunming mouse model of skin infection assessed as suppression of purulent secretion at 8 mg/kg administered daily pre-infected for 4 hrs followed by compound administration for 7 days; type: functional, organism-based; settings: time 7.0 day

| Structure (SMILES) | MBC (Staphylococcus aureus [1]) | MBC (Enterococcus faecalis [2]) | MIC (Staphylococcus aureus [3]) | MIC (Enterococcus faecalis [4]) | also measured |
| --- | --- | --- | --- | --- | --- |
| CCCCCCCCCCCCc1cc(O)cc(O)c1 | 8 µg/mL (≈ 28.7 µM) | 4 µg/mL (≈ 14.4 µM) | 8 µg/mL (≈ 28.7 µM) | 4 µg/mL (≈ 14.4 µM) |  |
| CCCCCCCCCCCCCc1cc(O)cc(O)c1 | 4 µg/mL (≈ 13.7 µM) | 4 µg/mL (≈ 13.7 µM) | 4 µg/mL (≈ 13.7 µM) | 4 µg/mL (≈ 13.7 µM) |  |
| CCCCCCCCCCCCc1cc(O)cc(O)c1C(=O)O | 8 µg/mL (≈ 24.8 µM) | 4 µg/mL (≈ 12.4 µM) | 8 µg/mL (≈ 24.8 µM) | 4 µg/mL (≈ 12.4 µM) |  |
| CC1(C)S[C@@H]2[C@H](NC(=O)[C@H](N)c3ccccc3)C(=O)N2[C@H]1C(=O)O [AMPICILLIN] |  |  |  | 2 µg/mL (≈ 5.72 µM) | Activity (Enterococcus faecalis [5]): inactive; fold change (FC) (Enterococcus faecalis [6]): 4 |
| CCCCCCCCCCCCCc1cc(O)cc(O)c1C(=O)O | 4 µg/mL (≈ 11.9 µM) | 8 µg/mL (≈ 23.8 µM) | 4 µg/mL (≈ 11.9 µM) | 8 µg/mL (≈ 23.8 µM) |  |
| CN[C@H](CC(C)C)C(=O)N[C@H]1C(=O)N[C@@H](CC(N)=O)C(=O)N[C@H]2C(=O)N[C@H]3C(=O)N[C@H](C(=O)N[C@H](C(=O)O)c4cc(O)cc(O)c4-c4cc3ccc4O)[C@H](O)c3ccc(c(Cl)c3)Oc3cc2cc(c3O[C@@H]2O[C@H](CO)[C@@H](O)[C@H](O)[C@H]2O[C@H]2C[C@](C)(N)[C@H](O)[C@H](C)O2)Oc2ccc(cc2Cl)[C@H]1O [VANCOMYCIN] |  |  |  |  | Activity (Staphylococcus aureus [7]): Active; Activity [8]: Non-Toxic; Activity (Staphylococcus aureus [9]): Active; Activity (Staphylococcus aureus [10]): inactive; Activity (Staphylococcus aureus [11]): Active; Activity (Staphylococcus aureus [12]): Active; Activity (Staphylococcus aureus [13]): Active |
| COc1cccc(OC)c1C(=O)N[C@@H]1C(=O)N2[C@@H]1SC(C)(C)[C@@H]2C(=O)O [METHICILLIN] |  |  | > 128 µg/mL |  |  |
| CCCCCCCCCCCc1cc(O)cc(O)c1C(=O)O | 8 µg/mL (≈ 25.9 µM) | 8 µg/mL (≈ 25.9 µM) | 8 µg/mL (≈ 25.9 µM) | 8 µg/mL (≈ 25.9 µM) |  |
| CCCCCCCCCCCCCCc1cc(O)cc(O)c1C(=O)O | 4 µg/mL (≈ 11.4 µM) | 8 µg/mL (≈ 22.8 µM) | 4 µg/mL (≈ 11.4 µM) | 4 µg/mL (≈ 11.4 µM) |  |
